The results in this text go back to ChEMBL document CHEMBL1201862, “PubChem BioAssay data set” (2004).

The structures appear in SMILES notation. Activity calls are given as the source filed them.

Some targets named below: Cytochrome P450 2C9 (Homo sapiens, UniProt P11712); Cytochrome P450 3A4 (Homo sapiens, UniProt P08684); Cytochrome P450 2D6 (Homo sapiens, UniProt P10635).
Data set [1] in a line: Luminescence Cell-Based Dose Response HTS to Identify Inhibitors of 5'UTR Stem-Loop Driven Prion Protein mRNA Translation in H4 Neuroglioblastoma Cells. [Related pubchem assays: 1827 (Project Summary), 1813 (Primary HTS)]. The format is functional.
The target of the next data set is T1, Streptokinase A (Streptococcus pyogenes serotype M1, UniProt P10520).
T1 sequence (P10520 whole entry): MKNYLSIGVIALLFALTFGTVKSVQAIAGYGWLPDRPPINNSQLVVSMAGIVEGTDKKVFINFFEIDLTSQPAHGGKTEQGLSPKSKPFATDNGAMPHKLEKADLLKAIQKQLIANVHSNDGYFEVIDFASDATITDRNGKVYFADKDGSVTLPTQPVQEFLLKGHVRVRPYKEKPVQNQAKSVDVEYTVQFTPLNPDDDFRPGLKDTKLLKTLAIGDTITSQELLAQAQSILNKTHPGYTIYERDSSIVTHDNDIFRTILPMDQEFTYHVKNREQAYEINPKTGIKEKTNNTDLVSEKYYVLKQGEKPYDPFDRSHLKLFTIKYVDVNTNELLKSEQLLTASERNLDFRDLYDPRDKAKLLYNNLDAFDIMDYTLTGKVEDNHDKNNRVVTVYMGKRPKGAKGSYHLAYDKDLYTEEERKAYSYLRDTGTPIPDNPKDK
Description: viability-normalized secreted streptokinase activity reduction – plasminogen activation absorbance, OD405, dose response (AID 1914).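 Note: secreted streptokinase activity via plasminogen activation per viability signal from cell pellet.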 Type of data set: functional, Streptococcus pyogenes M1 GAS.

The nature of data set [2]: alpha-synuclein stem-loop luciferase translation blockers – H4 neuroglioma cells, luminescence, confirmation (AID 1988). The format is functional, cell-based.
In data set [3] the test system is Streptococcus sp. 'group A'. Description: Streptococcus pyogenes SK(-)GAS viability under kanamycin – luminescence, BacTiterGlo, confirmation, counter-screen for streptokinase expression inhibitor project, dose response (AID 1900). The format is functional, organism-based.
In another data set the test system is Streptococcus. Put plainly: GAS UMAA2166 growth inhibition – luminescence, BacTiterGlo, counter-screen for streptokinase expression inhibitor project, dose response (AID 1915).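 Note: potency for reduction of bacterial viability or growth.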 Type of data set: functional, organism-based.
Another data set concerns the target Cytochrome P450 2C19 (Homo sapiens, UniProt P33261). Put plainly: Cytochrome panel assay with activity outcomes. Panel member name: p450-cyp2c19 Compounds with AC50 equal or less than 10 uM are considered active. The format is functional.
A further data set concerns the target T2, Cytochrome P450 1A2 (Homo sapiens, UniProt P05177).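 Note: PubChem cytochrome P450 panel assay, CYP1A2 panel member.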
T2 sequence (P05177 whole entry): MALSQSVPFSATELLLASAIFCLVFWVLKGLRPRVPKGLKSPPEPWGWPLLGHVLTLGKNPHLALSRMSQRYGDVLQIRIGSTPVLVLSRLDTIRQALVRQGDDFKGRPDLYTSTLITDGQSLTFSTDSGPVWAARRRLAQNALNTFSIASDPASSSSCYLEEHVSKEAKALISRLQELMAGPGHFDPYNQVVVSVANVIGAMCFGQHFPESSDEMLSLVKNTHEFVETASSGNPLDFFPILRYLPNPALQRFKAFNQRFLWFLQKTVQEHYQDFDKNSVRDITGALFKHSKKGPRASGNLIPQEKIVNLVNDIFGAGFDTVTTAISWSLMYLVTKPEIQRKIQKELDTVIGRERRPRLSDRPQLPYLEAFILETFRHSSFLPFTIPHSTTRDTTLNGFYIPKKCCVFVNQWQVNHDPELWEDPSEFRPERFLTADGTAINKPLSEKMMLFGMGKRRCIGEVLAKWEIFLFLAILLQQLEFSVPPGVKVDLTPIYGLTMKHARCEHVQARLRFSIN

Sequence of Cytochrome P450 2C19 (P33261 whole entry): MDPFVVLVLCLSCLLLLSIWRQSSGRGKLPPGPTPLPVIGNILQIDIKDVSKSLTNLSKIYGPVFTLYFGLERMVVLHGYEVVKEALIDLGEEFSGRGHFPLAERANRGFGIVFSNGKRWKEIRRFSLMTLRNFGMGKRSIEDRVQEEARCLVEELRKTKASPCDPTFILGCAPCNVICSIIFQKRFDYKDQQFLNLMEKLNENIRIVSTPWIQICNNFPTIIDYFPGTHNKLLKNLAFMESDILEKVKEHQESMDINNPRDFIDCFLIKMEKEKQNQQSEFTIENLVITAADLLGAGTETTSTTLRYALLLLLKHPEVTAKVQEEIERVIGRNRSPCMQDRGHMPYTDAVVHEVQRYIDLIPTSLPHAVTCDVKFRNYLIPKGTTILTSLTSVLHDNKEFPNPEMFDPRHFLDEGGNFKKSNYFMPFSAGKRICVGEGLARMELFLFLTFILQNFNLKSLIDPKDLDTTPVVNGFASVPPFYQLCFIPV
Sequence of Cytochrome P450 3A4 (P08684 whole entry): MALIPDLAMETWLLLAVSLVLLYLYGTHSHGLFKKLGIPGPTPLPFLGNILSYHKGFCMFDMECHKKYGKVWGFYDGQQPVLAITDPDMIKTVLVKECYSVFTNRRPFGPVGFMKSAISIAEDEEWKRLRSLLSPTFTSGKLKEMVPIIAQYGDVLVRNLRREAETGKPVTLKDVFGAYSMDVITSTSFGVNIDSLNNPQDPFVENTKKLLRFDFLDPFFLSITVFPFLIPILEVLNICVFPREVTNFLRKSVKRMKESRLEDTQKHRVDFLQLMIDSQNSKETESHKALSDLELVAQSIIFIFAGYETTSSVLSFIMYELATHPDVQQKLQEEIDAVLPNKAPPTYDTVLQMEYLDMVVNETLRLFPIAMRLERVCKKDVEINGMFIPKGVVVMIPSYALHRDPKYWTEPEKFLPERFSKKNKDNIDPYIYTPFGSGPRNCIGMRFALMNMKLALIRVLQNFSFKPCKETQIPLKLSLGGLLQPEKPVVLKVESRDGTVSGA
Sequence of Cytochrome P450 2C9 (P11712 whole entry): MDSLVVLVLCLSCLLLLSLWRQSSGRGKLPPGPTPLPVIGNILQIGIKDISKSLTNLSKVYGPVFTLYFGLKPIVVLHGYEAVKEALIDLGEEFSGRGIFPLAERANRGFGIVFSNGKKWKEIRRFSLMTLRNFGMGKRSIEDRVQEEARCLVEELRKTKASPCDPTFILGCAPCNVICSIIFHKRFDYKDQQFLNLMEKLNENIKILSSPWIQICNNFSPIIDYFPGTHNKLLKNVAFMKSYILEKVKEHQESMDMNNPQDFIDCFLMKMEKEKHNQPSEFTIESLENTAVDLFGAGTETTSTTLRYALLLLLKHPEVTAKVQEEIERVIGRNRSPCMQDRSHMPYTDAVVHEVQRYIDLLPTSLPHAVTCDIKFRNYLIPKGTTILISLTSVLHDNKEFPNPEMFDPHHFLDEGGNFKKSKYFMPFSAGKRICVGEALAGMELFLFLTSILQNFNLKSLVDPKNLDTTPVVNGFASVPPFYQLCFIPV
Sequence of Cytochrome P450 2D6 (P10635 whole entry): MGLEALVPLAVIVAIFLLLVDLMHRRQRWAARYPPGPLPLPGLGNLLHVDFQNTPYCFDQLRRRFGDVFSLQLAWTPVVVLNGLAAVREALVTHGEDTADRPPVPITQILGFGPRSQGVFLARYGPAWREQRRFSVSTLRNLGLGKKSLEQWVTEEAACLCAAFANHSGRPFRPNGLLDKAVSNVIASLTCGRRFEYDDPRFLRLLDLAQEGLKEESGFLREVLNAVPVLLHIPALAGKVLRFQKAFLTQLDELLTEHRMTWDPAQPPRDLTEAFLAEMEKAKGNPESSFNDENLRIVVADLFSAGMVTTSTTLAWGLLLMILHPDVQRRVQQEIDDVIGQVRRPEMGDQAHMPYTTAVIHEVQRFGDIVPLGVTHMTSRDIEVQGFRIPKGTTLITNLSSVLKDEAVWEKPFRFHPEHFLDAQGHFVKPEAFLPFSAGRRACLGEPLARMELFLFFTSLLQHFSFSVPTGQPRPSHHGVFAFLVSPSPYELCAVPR

`O=C(O)c1ccccc1Nc1cccc(C(F)(F)F)c1` [FLUFENAMIC ACID]: the AC50 on Cytochrome P450 2C9 is 10 µM (inconclusive).

For `Cn1cc(-c2nc3cnc(N4CCNCC4)nc3n(C3CC3)c2=O)c2ccccc21`, at Cytochrome P450 3A4, the AC50 is 7.94 µM (inconclusive).

`Cc1ccc(SCc2ccc(C(=O)NCc3ccncc3)cc2)cc1`: on Cytochrome P450 3A4, the AC50 is 7.08 µM (inconclusive).

With `Cc1cc(C)cc(NC(=O)CC(=N)NO)c1`, at Cytochrome P450 3A4, the AC50 was 28.2 µM (inconclusive).

As for `COc1ccccc1CNc1ncnc2ccc(-c3cccc(C#N)c3)cc12`, the AC50 at Cytochrome P450 2D6 was 2.51 µM (inconclusive).

For `COc1ccc(Br)cc1/C=C/c1ccc2cccc(O)c2n1`, the EC50 in [1] is 13.4 µM (active); on Streptokinase A, > 150 µM (not active); in data set [2] it was > 120 µM (not active); in data set [3], 0.246 µM (active); in the data set on Streptococcus, 6.48 µM (active).

Turning to `O=S(=O)(NCCNC/C=C\c1ccc(Br)cc1)c1cccc2cnccc12`, the results for the AC50 on Cytochrome P450 2C19 (read-out: AC50) and on Cytochrome P450 2D6 were 15.8 µM (inconclusive) and 25.1 µM (inconclusive), respectively.

For the molecule `CN(C)c1ncc2nc(-c3cccs3)c(=O)n(C)c2n1`, at Cytochrome P450 3A4, the concentration at half-maximal activity (AC50) is 31.6 µM (inconclusive).

Take `O=C(c1cccc(F)c1)N1CCC2(CCCN(c3ccncc3)C2)CC1`: the figures for the AC50 at Cytochrome P450 1A2 and on Cytochrome P450 2D6 were 31.6 µM (inconclusive) and 15.8 µM (inconclusive), respectively.

For `Cc1cccc(CNc2ncnc3ccc(-c4cccc(C#N)c4)cc23)c1`, the AC50 at Cytochrome P450 2C9 is 0.794 µM (inconclusive).

Regarding `Cc1cc(NC(=O)Nc2ccc(F)cc2)no1`, on Cytochrome P450 2C9, the AC50 is 15.8 µM (inconclusive).

As for `CCCCCCCCN[C@@H](C)[C@H](O)c1ccc(SC(C)C)cc1` [SULOCTIDIL], the AC50 on Cytochrome P450 2C19 (read-out: AC50) was 10 µM (inconclusive); on Cytochrome P450 2C9 it was 0.00501 µM (inconclusive).

In the case of `COc1ccc2[nH]cc(CCNc3nc(-c4ccoc4)nc4ccccc34)c2c1`, the AC50 at Cytochrome P450 2C9 was 1 µM (inconclusive).

In the case of `Cc1cccc(NC(S)=NNC(=O)CC(C)O)c1C` (stereo not given), the AC50 at Cytochrome P450 2C9 was 0.00708 µM (inconclusive).

For the molecule `Cc1cccc(OCCCC(=O)Nc2ccccc2C(F)(F)F)c1`, the AC50 on Cytochrome P450 2D6 is 25.1 µM (inconclusive).

For `CCCN1C(=O)C(Cc2nc3ccccc3c(=O)n2C)c2ccccc21` (stereo not given), the results for the AC50 on Cytochrome P450 2C19 (read-out: AC50), on Cytochrome P450 1A2 and at Cytochrome P450 2D6 were 0.0562 µM (inconclusive), 25.1 µM (inconclusive) and 17.8 µM (inconclusive), respectively.

Regarding `Fc1ccc(CSc2ncnc3sc4c(c23)CCCC4)cc1`, the values for the EC50 (on Streptokinase A; in data set [3]; in the data set with Streptococcus) were 13.3 µM (active), 22.8 µM (active) and > 150 µM (not active), respectively. Moreover, at Cytochrome P450 3A4, the AC50 is 35.5 µM (inconclusive).

Turning to `CC(=O)c1ccc(NC(=O)C2CC(c3ccc(F)cc3)=NO2)cc1` (stereo not given), the AC50 at Cytochrome P450 2C19 (read-out: AC50) was 17.8 µM (inconclusive); at Cytochrome P450 2C9 it was 1.12 µM (inconclusive); at Cytochrome P450 1A2, 0.00794 µM (inconclusive).

With `CC(C)Oc1ccc(N2CC(C(=O)OCC(=O)NCc3ccccc3)CC2=O)cc1` (stereo not given), the values for the AC50 on Cytochrome P450 2C9 and at Cytochrome P450 2D6 were 28.2 µM (inconclusive) and 22.4 µM (inconclusive), respectively.

Consider `c1ccc2c(c1)CCCc1cc(NCCN3CCOCC3)nnc1-2`, for which the AC50 on Cytochrome P450 3A4 is 6.31 µM (inconclusive).

As to `NS(=O)(=O)c1ccc(/N=N\c2cccnc2O)cc1`, the AC50 was 3.98 µM (inconclusive) at Cytochrome P450 2C19 (read-out: AC50), 3.16 µM (inconclusive) on Cytochrome P450 2C9 and 0.501 µM (inconclusive) at Cytochrome P450 1A2.

Turning to `Cc1noc(NS(=O)(=O)c2ccc(NC(=O)CC34CC5CC(CC(Br)(C5)C3)C4)cc2)c1C`, the AC50 result is “inconclusive” on Cytochrome P450 2C19 and 22.4 µM (inconclusive) on Cytochrome P450 2C9.

Turning to `O=C(O)[C@H]1CCCC[C@@H]1c1c2ccc(=O)c(O)c-2oc2c(O)c(O)ccc12`, the concentration at half-maximal activity (AC50) is 2.51 µM (inconclusive) at Cytochrome P450 2C19 (read-out: AC50) and 6.31 µM (inconclusive) on Cytochrome P450 2C9.

Consider `Cc1nc(SCC(=O)Nc2ccc(N3CCOCC3)cc2)nc(C)c1C`, for which, on Cytochrome P450 2C9, the AC50 is 12.6 µM (inconclusive).

Take `COc1cccc(C(=O)Nc2ccc(NC(=O)c3ccco3)cn2)c1`: the AC50 on Cytochrome P450 1A2 was 25.1 µM (inconclusive); at Cytochrome P450 2D6, 20 µM (inconclusive).

Broadly, the AC50 is the concentration giving half of the maximal activity seen. For orientation: EC50 means the concentration at which the effect is half-maximal.
